Measured values: patent US9733187B2, “Method of detecting bladder cancer by optical analysis of bodily fluids” (KING SAUD UNIVERSITY, priority 2015, dated 2017)

Legend:
[1] = Porphyrin elimination after oral administration of 5-aminolevulinic acid; type: in vivo
Experimental: The patient is administered 5-aminolevulinic acid (also referred to as 8-aminolevulinic acid), which is the first compound in the porphyrin synthesis pathway (i.e., the pathway that leads to heme in mammals). The 5-aminolevulinic acid is preferably administered orally at a dosage of approximately 5 mg of 5-aminolevulinic acid per kilogram of the patient's body weight. The patient can drink water upon taking the 5-aminolevulinic acid. The patient can wait approximately eight hours before urinating.
Approximately eight hours after oral administration of the 5-aminolevulinic acid, a bodily fluid sample is collected from the patient, and this bodily fluid sample is optically analyzed to measure a concentration of porphyrin therein. Preferably, multiple bodily fluid samples are taken at two hour intervals (i.e., one initial sample at the time of administration, and then subsequent samples taken at two hours, four hours, six hours and eight hours after administration). The bodily fluid being analyzed may be urine and/or blood.
Porphyrin is synthesized by the 5-aminolevulinic acid which is administered to the patient.

[2] = porphyrin synthesized from administered 5-aminolevulinic acid; cited from earlier work

In the case of `C1=Cc2cc3ccc(cc4nc(cc5ccc(cc1n2)[nH]5)C=C4)[nH]3` [Porphyrin, porphyrin], the porphyrin retention time ([1]; bladder cancer patients) is given as “up to eight”, the “porphyrin eliminated through urine” value ([1]; healthy person, after four hours following administration of 5-aminolevulinic acid) is given as “approximately 90%” and the half-life [2] is given as “approximately two”.
